One experiment concerns GBM12. Briefly: Cignal 45-Pathway Reporter Array. Type of experiment: cell-based, human. The settings on record: tofacitinib 1 μM, 24 hours.
The next experiment has as its system BIN3 promoter. Briefly: ChIP assay of EGR1 occupancy. Type of experiment: cell-based, human. As to conditions: EGF, 24 hours; GBM12 and GBM6. As for the experimental part: Chromatin immunoprecipitation (ChIP) assays were performed using a ChIP assay kit (Upstate Biotechnology, Lake Placid, N.Y., USA). Cells were treated with or without EGF for the indicated time points or transfected with indicated vectors for 48 hours followed by cell fixation, lysis, chromatin shearing, antibody incubation and washing according to the manufacturer's protocol. ChIP grade anti-EGR1 (4153) or anti-Nanog antibody (5232) antibody from Cell Signaling Technology (Danvers, Mass.) was used to selectively precipitate the corresponding protein-DNA complex. RT-PCR was performed using ViiA 7 Real-Time PCR System (Applied Biosystems) to measure the relative amounts of ChIP DNA and results were quantified relative to inputs. The data are expressed as percentage of input. Following are primer sets: BIN3_Forward: 5′-[…]-3′ (SEQ ID NO:1); BIN3_Reverse: 5′-[…]-3′ (SEQ ID NO:2); EMP1_Forward: 5′-[…]-3′ (SEQ ID NO:3); EMP1_Reverse: 5′-[…]-3′ (SEQ ID NO:4).
Referring to FIG. 8A-D, EGF induces EGR1 activity and enrichment on the BIN3 promoter. […] Cells were transiently transfected with EGR1 firefly luciferase reporter vector and Renilla luciferase vector for 48 hours, EGF was added for additional 2 or 24 hours prior to measuring luciferase activity. […] Cells were treated with or without EGF for 24 hours. ChIP assay was performed as described elsewhere herein. IgG was used as negative control. […]

The subject of experiment [1] is GBM12 mouse intracranial tumors. Briefly: Exogenous EGF infusion into GBM12 intracranial tumors. Type of experiment: in vivo, mice. The settings on record: EGF infused into lateral ventricles by miniosmotic pump. As for the experimental part: 4 to 6 weeks old female athymic nude mice were purchased from Charles River Laboratories. Mayo PDXs were injected into the right corpus striatum of the brains of 6-8 week-old nude mice using a stereotactic frame. […] Kaplan-Maier survival curves were calculated using GraphPad Prism 7.0 software. Alzet Osmotic pumps were installed for brain delivery of EGF or vehicle in tumor bearing mice. To monitor the mice with orthotropic xenografts, MRI was performed at the Mouse MRI Core, Advanced Imaging Research Center, at UT Southwestern.
Next, the impact of EGFR ligand on GBM invasion was examined in an orthotopic mouse model. To induce ligand activation of EGFR in vivo, ligand to EGFR-expressing tumors were provided by generating an autocrine loop or by exogenous infusion of ligand. In the autocrine loop experiment, ligand for EGFRwt is provided by the same cells that express the EGFR. Autocrine loops involving EGFR and its ligands are well described in GBM (Ramnarain et al. (2006) Cancer Res. 66: 867-874; Tang et al. (1997) J. Neurooncol. 35: 303-314). […]
Western blot analysis of TGFα, pEGFR, EGFR, and BIN3 in PDXs stably transfected with empty (GBM12V, GBM6V, GBM22V) or TGFα expressing vector (GBM12TGFα, GBM6TGFα, GBM22TGFα) is shown in FIG. 12A. […] Quantitative analysis of HNA positive cells in mouse tumor tissue sections. […]

On to `C[C@@H]1CCN(C(=O)CC#N)C[C@@H]1N(C)c1ncnc2[nH]ccc12` [tofacitinib], for which, in the experiment with GBM12, the transcription factor activity entry is given as “upregulates multiple transcription factors”.
Consider “EGF: Recombinant human EGF (AF-100) from Peprotech; EGFR ligand”, for which the “EGR1 occupancy of BIN3 promoter” value in the experiment on BIN3 promoter is “occupies the BIN3 promoter”. The “tumor size (MRI)” value in experiment [1] was “smaller tumors”. In experiment [1] (H&E, SMI-31, HNA staining), the tumor invasiveness result is “noninvasive”.

The values are drawn from patent publication US20230075368A1, “IDENTIFICATION OF AN EGFR-BIN3 PATHWAY THAT ACTIVELY SUPPRESSES INVASION AND REDUCES TUMOR SIZE IN GLIOBLASTOMA” (The United States Govemment as represented by the …, priority 2020, published 2023).
